Inhibition and IC50 data for 31 molecules are collected here from patent US8735406B2, “8-oxodihydropurine derivative” (Dainippon Sumitomo Pharma Co., Ltd., priority 2009, dated 2014).

Structures are written as SMILES.

The test concerns the target T1, FAAH (Rattus norvegicus, UniProt P97612).
T1 construct: Preparation of Rat Brain Membranes Preparations (FAAH Enzyme Solution); from tissue; host or cells: rat cerebrum (brain membrane preparation)
T1 sequence (P97612 1-579): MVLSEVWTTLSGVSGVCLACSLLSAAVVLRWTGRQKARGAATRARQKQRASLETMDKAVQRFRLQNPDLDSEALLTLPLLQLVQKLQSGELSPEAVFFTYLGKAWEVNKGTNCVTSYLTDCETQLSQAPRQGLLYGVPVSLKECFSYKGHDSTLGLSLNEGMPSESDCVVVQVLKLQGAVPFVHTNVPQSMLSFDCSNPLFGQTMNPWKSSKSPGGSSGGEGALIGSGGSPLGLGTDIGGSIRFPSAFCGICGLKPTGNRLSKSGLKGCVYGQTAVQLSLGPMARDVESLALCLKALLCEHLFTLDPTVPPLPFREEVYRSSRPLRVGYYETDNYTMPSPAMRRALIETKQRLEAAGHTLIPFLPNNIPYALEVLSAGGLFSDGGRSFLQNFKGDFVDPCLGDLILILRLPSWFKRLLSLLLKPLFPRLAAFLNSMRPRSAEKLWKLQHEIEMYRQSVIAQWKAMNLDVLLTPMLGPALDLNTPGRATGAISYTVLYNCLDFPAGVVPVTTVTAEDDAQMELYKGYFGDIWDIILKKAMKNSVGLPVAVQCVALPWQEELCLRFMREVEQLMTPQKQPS
The experiment in a line: Determination of FAAH inhibitory activity in rat (rat brain membrane preparations, [3H]-anandamide hydrolysis). Type of test: biochemical. Particulars: rat brain membrane preparations; for inhibition at 0.1 µM: 100 nM test substance, read-out: FAAH Inhibition, Inhibition Rate at 100 nM; for IC50: test substance 0.1 nM to 1 μM, read-out: FAAH Inhibition IC50. A digest of the protocol: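 Rat cerebrum membranes (100 μg/mL protein) preincubated 10 min at 37 °C with compound (1% DMSO) in pH 7.6 Tris buffer with 1.5% BSA. Substrate 2 nM [3H]-anandamide plus 2 μM anandamide added for 10 min at 37 °C. [3H]-ethanolamine in the aqueous phase after chloroform/methanol extraction was scintillation counted; IC50 over 0.1 nM–1 μM.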

Regarding `Cn1c(=O)n(C(=O)N2CCC2)c2nc(COc3ccccc3)ncc21` [Example 415], the inhibition (in general, the relative decrease from the control value, in per cent) at 0.1 µM is 41% and the IC50 (as a rule, the midpoint of a concentration-inhibition curve) was determined as 0.148 µM.
Consider `Cc1ccccc1OCc1ncc2c(n1)n(C(=O)N1CCC1)c(=O)n2C` [Example 416], for which the inhibition at 0.1 µM worked out at 50% and the IC50 was found to be 0.112 µM.
Regarding `Cc1cccc(OCc2ncc3c(n2)n(C(=O)N2CCC2)c(=O)n3C)c1` [Example 417], the inhibition at 0.1 µM was found to be 66% and the IC50 was found to be 0.033 µM.
Turning to `CCc1cccc(OCc2ncc3c(n2)n(C(=O)N2CCC2)c(=O)n3C)c1` [Example 418], the inhibition at 0.1 µM is 75% and the IC50 amounted to 0.035 µM.
For `Cn1c(=O)n(C(=O)N2CCC2)c2nc(COc3cccc(Cl)c3)ncc21` [Example 419], the inhibition at 0.1 µM was 81% and the half-maximal inhibitory concentration (IC50) amounted to 0.031 µM.
For `Cn1c(=O)n(C(=O)N2CCC2)c2nc(COc3cccc(F)c3)ncc21` [Example 420] the same measures were 60% and 0.065 µM.
With `CN(C)C(=O)n1c(=O)n(C)c2cnc(COc3ccccc3Cl)nc21` [Example 421], the inhibition at 0.1 µM worked out at 85% and the half-maximal inhibitory concentration (IC50) came out at 0.095 µM.
In the case of `CN(C)C(=O)n1c(=O)n(C)c2cnc(COc3cccc(C(F)(F)F)c3)nc21` [Example 422], the inhibition at 0.1 µM came out at 88% and the IC50 worked out at 0.022 µM.
As for `CN(C)C(=O)n1c(=O)n(C)c2cnc(COc3cccc(OC(F)(F)F)c3)nc21` [Example 423], the inhibition at 0.1 µM was found to be 112% and the IC50 was determined as 0.003 µM.
For `Cc1ccc(OCc2ncc3c(n2)n(C(=O)N2CCC2)c(=O)n3C)cc1` [Example 424] the same measures were 80% and 0.026 µM.
For `Cn1c(=O)n(C(=O)N2CCC2)c2nc(COc3ccccc3F)ncc21` [Example 425] the same measures were 79% and 0.012 µM.
Take `Cn1c(=O)n(C(=O)N2CCC2)c2nc(COc3ccc(F)cc3)ncc21` [Example 426]: the inhibition at 0.1 µM was 84% and the IC50 is 0.009 µM.
Consider `Cn1c(=O)n(C(=O)N2CCC2)c2nc(COc3ccccc3Cl)ncc21` [Example 427], for which the inhibition at 0.1 µM was 92% and the concentration for half-maximal inhibition (IC50) was determined as 0.019 µM.
Consider `Cn1c(=O)n(C(=O)N2CCC2)c2nc(COc3ccc(Cl)cc3)ncc21` [Example 428], for which the inhibition at 0.1 µM was found to be 123% and the IC50 is 0.01 µM.
On to `CN(C)C(=O)n1c(=O)n(C)c2cnc(COc3ccccc3C(F)(F)F)nc21` [Example 429], for which the inhibition at 0.1 µM came to 84% and the IC50 was found to be 0.023 µM.
For `CN(C)C(=O)n1c(=O)n(C)c2cnc(COc3ccccc3OC(F)(F)F)nc21` [Example 430], the inhibition at 0.1 µM came out at 80% and the IC50 was 0.024 µM.
Take `CN(C)C(=O)n1c(=O)n(C)c2cnc(COc3cccc(OC(F)F)c3)nc21` [Example 431]: the inhibition at 0.1 µM was 60% and the IC50 came to 0.094 µM.
`Cn1c(=O)n(C(=O)N2CCC2)c2nc(COc3ccc(C(F)(F)F)cc3)ncc21` [Example 434]: the inhibition at 0.1 µM was determined as 95% and the IC50 was determined as 0.008 µM.
For the molecule `Cn1c(=O)n(C(=O)N2CCC2)c2nc(COc3ccccc3OC(F)(F)F)ncc21` [Example 435], the inhibition at 0.1 µM was 94% and the IC50 was 0.012 µM.
On to `Cn1c(=O)n(C(=O)N2CCC2)c2cnc(COc3cccc(OC(F)F)c3)nc21` [Example 437], for which the inhibition at 0.1 µM came to 96% and the IC50 is 0.011 µM.
In the case of `COCc1ncc2c(n1)n(C)c(=O)n2C(=O)N1CC(c2ccccc2)C1` [Example 438, 2-(methoxymethyl)-9-methyl-7-[(3-phenylazetidin-1-yl)carbonyl]-7,9-dihydro-8H-purine-8-one], the inhibition at 0.1 µM was 86% and the IC50 is 0.034 µM.
Take `COCc1ncc2c(n1)n(C)c(=O)n2C(=O)N1CC(c2ccc(F)cc2)C1` [Example 439, 7-{[3-(4-Fluorophenyl)azetidin-1-yl]carbonyl}-2-(methoxymethyl)-9-methyl-7,9-dihydro-8H-purine-8-one]: the inhibition at 0.1 µM came out at 104% and the IC50 stood at 0.005 µM.
For `COCc1ncc2c(n1)n(C)c(=O)n2C(=O)N1CC(c2cccc(F)c2)C1` [Example 440, 7-{[3-(3-Fluorophenyl)azetidin-1-yl]carbonyl}-2-(methoxymethyl)-9-methyl-7,9-dihydro-8H-purine-8-one] the same measures were 88% and 0.021 µM.
As to `COCc1ncc2c(n1)n(C)c(=O)n2C(=O)N1CC(c2ccccc2F)C1` [Example 441, 7-{[3-(2-Fluorophenyl)azetidin-1-yl]carbonyl}-2-(methoxymethyl)-9-methyl-7,9-dihydro-8H-purine-8-one], the inhibition at 0.1 µM was determined as 74% and the IC50 was 0.037 µM.
Regarding `COCc1ncc2c(n1)n(C)c(=O)n2C(=O)N1CC(c2cccc(C(F)(F)F)c2)C1` [Example 443, 2-(Methoxymethyl)-9-methyl-7-({[3-(3-trifluoromethyl)phenyl]azetidin-1-yl}carbonyl)-7,9-dihydro-8H-purine-8-one], the inhibition at 0.1 µM stood at 98% and the IC50 amounted to 0.007 µM.
For the molecule `COCc1ncc2c(n1)n(C)c(=O)n2C(=O)N1CC(c2ccccc2Cl)C1` [Example 453, 7-{[3-(2-Chlorophenyl)azetidin-1-yl]carbonyl}-2-(methoxymethyl)-9-methyl-7,9-dihydro-8H-purine-8-one], the inhibition at 0.1 µM was 90% and the half-maximal inhibitory concentration (IC50) was determined as 0.012 µM.
As to `COCc1ncc2c(n1)n(C)c(=O)n2C(=O)N1CC(c2ccc(F)cc2F)C1` [Example 454, 7-{[3-(2,4-Difluorophenyl)azetidin-1-yl]carbonyl}-2-(methoxymethyl)-9-methyl-7,9-dihydro-8H-purine-8-one], the inhibition at 0.1 µM was 89% and the IC50 was found to be 0.006 µM.
In the case of `COCc1ncc2c(n1)n(C)c(=O)n2C(=O)N1CC(c2ccc(F)c(C)c2)C1` [Example 455, 7-{[3-(4-Fluoro-3-methylphenyl)azetidin-1-yl]carbonyl}-2-(methoxymethyl)-9-methyl-7,9-dihydro-8H-purine-8-one], the inhibition at 0.1 µM was found to be 104% and the 50% inhibitory concentration (IC50) was 0.001 µM.
Regarding `COCc1ncc2c(n1)n(C)c(=O)n2C(=O)N1CC(c2ccc(OCc3ccccc3)cc2)C1` [Example 456, 7-({3-[4-(Benzyloxy)phenyl]azetidin-1-yl}carbonyl)-2-(methoxymethyl)-9-methyl-7,9-dihydro-8H-purine-8-one], the inhibition at 0.1 µM was 99% and the IC50 came to 0.001 µM.
With `COCc1ncc2c(n1)n(C)c(=O)n2C(=O)N1CC(c2ccc(OC(F)(F)F)cc2)C1` [Example 458, 2-(Methoxymethyl)-9-methyl-7-({3-[4-(trifluoromethoxy)phenyl]azetidin-1-yl}carbonyl)-7,9-dihydro-8H-purine-8-one], the inhibition at 0.1 µM is 120% and the IC50 was found to be 0.001 µM.
For `COCc1ncc2c(n1)n(C)c(=O)n2C(=O)N1CC(c2cccc(OC)c2)C1` [Example 459, 2-(Methoxymethyl)-7-{[3-(3-methoxyphenyl)azetidin-1-yl]carbonyl}-9-methyl-7,9-dihydro-8H-purine-8-one] the same measures were 108% and 0.009 µM.
